“And” between values parts separate entries of the source, which are not always exact repeats. Identical values can stand only once. Like-named read-outs stand apart in the source and are kept apart here. Marks after values point to notes of the source that are not given here.
Columns and labels:
[1] = system: 1-octen-3-ol receptors OR2W1, Olfr93, Olfr120, Olfr398; assay: Antagonists of 1-octen-3-ol receptors (Example 11); format: cell-based, mouse and human; set-up: Inhibition(%): concentration or dose not given beside the values; settings: Table 19
Olfr744 = molecular target: T1, Olfr744 (Mus musculus, UniProt Q7TRM0); assay: Indole antagonist dose-response, cAMP HTRF in HEK293T, vs indole EC80; format: cell-based; settings: Table 23
T1 construct: Flag; Rho tag; expressed in transfected cells
T1 sequence (Q7TRM0 1-323): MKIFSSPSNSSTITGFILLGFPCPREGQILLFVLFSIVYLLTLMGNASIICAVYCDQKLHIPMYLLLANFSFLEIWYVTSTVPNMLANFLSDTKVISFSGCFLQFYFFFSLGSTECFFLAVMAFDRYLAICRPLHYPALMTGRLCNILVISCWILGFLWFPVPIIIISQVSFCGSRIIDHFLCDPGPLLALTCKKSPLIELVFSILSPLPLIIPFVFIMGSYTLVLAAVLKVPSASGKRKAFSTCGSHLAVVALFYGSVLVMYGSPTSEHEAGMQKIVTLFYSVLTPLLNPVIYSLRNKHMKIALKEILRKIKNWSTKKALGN
Procedure: (§1) Functional dose-response experiments were performed to identify compounds capable of antagonizing indole-sensitive receptors previously identified (U.S. Pat. No. 9,914,760 B2). Using a cell-based assay, mouse receptor Olfr738, Olfr739, Olfr740, Olfr741, 0fr742, Olfr743, Olfr744, Olfr746, Olfr748 and Olfr749 were tested in an HEK293T cell line wherein the endogenous RTP1 gene has been activated and the odorant receptor chaperone was expressed (described in WO2016201153A1). The receptor genes were tagged with a Flag-Rho tag combination. Receptor genes were co-transfected with the canonical olfactory human G-protein alpha subunit Golf gene. Co-expression of the human Golf activates the Gs transduction pathway that leads to an internal cAMP increase upon binding to the appropriate ligand (indole here). Odorant-induced activity was detected by measuring the cAMP increase in the cytosol using an HTRF based kit (CisBio, cAMP dynamic 2 kit, cat. 62AM4PEJ). The receptors were exposed to binary mixtures of increasing concentrations of the test compounds in the presence of a potent activation concentration of indole (EC80) for each receptor. […] All the compounds listed decreased the indole induced activity of at least one receptor.

Olfr739 = Olfr739 (Mus musculus, UniProt E9Q1P0); assay: as above; format: cell-based
Procedure: as §1

Olfr749 = molecular target: T2, Olfr749 (Mus musculus, UniProt E9Q438); assay: as above; format: cell-based; settings: Table 23
T2 construct: Flag; Rho tag; expressed in transfected cells
T2 sequence (E9Q438 1-313): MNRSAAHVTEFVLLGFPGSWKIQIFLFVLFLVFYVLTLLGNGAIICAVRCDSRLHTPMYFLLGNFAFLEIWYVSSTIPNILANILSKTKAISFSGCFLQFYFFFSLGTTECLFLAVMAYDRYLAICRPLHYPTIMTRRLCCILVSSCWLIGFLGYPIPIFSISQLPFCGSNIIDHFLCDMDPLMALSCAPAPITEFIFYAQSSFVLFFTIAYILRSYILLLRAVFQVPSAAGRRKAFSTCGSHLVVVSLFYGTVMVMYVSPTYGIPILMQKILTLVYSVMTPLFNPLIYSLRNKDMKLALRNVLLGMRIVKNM
Procedure: as §1

Olfr743 = Olfr743 (Mus musculus, UniProt L7N1Y2); assay: as above; format: cell-based; settings: Table 23
Procedure: as §1

Olfr742 = Olfr742 (Mus musculus, UniProt A2RTP5); assay: as above; format: cell-based; settings: vs indole EC80; for Emax: HEK-293T, read-out: Olfr742 % Inhibition; for IC50: read-out: Olfr742 IC50
Procedure: (§2) Using a cell-based assay, mouse receptor Olfr738, Olfr739, Olfr740, Olfr741, 0fr742, Olfr743, Olfr744, Olfr746, Olfr748 and Olfr749 were tested in an HEK293T cell line wherein the endogenous RTP1 gene has been activated and the odorant receptor chaperone was expressed (described in WO2016201153A1). The receptor genes were tagged with a Flag-Rho tag combination. Receptor genes were co-transfected with the canonical olfactory human G-protein alpha subunit Golf gene. Co-expression of the human Golf activates the Gs transduction pathway that leads to an internal cAMP increase upon binding to the appropriate ligand (indole here). Odorant-induced activity was detected by measuring the cAMP increase in the cytosol using an HTRF based kit (CisBio, cAMP dynamic 2 kit, cat. 62AM4PEJ).

Olfr741 = Olfr741 (Mus musculus, UniProt L7N1Y5); assay: as above; format: cell-based
Procedure: as §2

Olfr748 = Olfr748 (Mus musculus, UniProt E9Q9Z0); assay: as above; format: cell-based; settings: Table 23
Procedure: as §2

Olfr740 = Olfr740 (Mus musculus, UniProt E9PV79); assay: as above; format: cell-based; settings: vs indole EC80; for IC50: read-out: Olfr740 IC50
Procedure: as §2

Olfr738 = Olfr738 (Mus musculus, UniProt L7N1X7); assay: as above; format: cell-based; settings: vs indole EC80; for IC50: read-out: Olfr738 IC50
Procedure: as §2

[2] = system: OR11A1, or the OR2M3 olfactory receptor; assay: Geonol olfactory receptor antagonist cell-based screening, inhibitory dose-response vs geonol EC80; set-up: species or system human; settings: geonol at EC80; for IC50: read-out: IC50
Olfr746 = molecular target: T3, Olfr746 (Mus musculus, UniProt E9Q840); assay: Indole antagonist dose-response, cAMP HTRF in HEK293T, vs indole EC80; format: cell-based; settings: Table 23
T3 construct: Flag; Rho tag; expressed in transfected cells
T3 sequence (E9Q840 1-314): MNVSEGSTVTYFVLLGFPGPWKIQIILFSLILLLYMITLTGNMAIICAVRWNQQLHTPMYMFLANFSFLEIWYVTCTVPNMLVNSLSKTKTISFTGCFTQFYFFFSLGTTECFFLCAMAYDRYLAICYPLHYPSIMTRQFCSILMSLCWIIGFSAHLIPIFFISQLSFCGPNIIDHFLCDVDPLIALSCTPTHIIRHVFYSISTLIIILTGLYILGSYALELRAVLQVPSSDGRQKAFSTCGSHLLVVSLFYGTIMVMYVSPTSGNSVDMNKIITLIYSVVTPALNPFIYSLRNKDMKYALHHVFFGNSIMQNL
Procedure: as §1

[3] = system: geonol earthy/moss odor perception; assay: Human sensory performance of test compounds with and without geonol; format: in vivo; settings: for % Earthy/Moss Odor: Test Compound Only
Procedure, shortened: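 Panelists first learned the earthy/moss quality from a geonol-only reference, then rated pleasantness, earthy/moss intensity and overall intensity of geonol alone, antagonist alone, and geonol mixed with isointense or low-intensity antagonist on a 0-10 linear scale. Samples were presented in glass jars in randomized order with two-minute intervals.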

[4] = system: geonol malodor (earthy/moss odor) perception; assay: Sensory evaluation of geonol earthy/moss odor in iso-intense binary mixtures (glass jars); format: in vivo, human; settings: iso-intense binary mixture
[5] = Table 22, first listing (r7-r45)
[6] = Table 22, second listing of the same compounds
[7] = Low Dilution Test Compound + Geonol (0.1%)
[8] = Medium Dilution Test Compound + Geonol (0.1%)

Chain of Olfr742 (A2RTP5 entry or part of it): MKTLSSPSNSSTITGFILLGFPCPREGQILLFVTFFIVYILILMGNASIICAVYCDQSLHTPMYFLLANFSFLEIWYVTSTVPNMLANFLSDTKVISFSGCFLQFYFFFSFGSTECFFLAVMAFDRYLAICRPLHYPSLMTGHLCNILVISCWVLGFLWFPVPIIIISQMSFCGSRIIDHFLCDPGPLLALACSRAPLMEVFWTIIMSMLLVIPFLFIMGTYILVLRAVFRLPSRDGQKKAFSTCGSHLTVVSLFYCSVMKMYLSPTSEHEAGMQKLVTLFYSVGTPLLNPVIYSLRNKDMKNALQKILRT
Chain of Olfr743 (L7N1Y2 entry or part of it): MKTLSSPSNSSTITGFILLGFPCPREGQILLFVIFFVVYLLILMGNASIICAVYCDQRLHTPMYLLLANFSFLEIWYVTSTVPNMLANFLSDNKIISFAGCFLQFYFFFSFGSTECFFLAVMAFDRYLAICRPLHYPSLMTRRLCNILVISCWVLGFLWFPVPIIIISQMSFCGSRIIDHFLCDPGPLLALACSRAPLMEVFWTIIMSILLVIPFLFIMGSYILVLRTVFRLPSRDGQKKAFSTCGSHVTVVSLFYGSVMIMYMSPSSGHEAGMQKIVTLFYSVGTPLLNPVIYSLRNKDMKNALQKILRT
Chain of Olfr741 (L7N1Y5 entry or part of it): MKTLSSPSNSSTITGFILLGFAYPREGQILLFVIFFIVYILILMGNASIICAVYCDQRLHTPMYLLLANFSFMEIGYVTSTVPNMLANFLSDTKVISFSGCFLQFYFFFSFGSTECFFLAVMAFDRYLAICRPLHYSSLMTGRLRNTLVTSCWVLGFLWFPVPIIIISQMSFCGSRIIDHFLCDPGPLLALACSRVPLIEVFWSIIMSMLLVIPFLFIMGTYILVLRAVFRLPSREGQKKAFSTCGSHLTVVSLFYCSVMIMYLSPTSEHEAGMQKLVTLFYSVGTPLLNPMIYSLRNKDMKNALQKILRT
Chain of Olfr739 (E9Q1P0 entry or part of it): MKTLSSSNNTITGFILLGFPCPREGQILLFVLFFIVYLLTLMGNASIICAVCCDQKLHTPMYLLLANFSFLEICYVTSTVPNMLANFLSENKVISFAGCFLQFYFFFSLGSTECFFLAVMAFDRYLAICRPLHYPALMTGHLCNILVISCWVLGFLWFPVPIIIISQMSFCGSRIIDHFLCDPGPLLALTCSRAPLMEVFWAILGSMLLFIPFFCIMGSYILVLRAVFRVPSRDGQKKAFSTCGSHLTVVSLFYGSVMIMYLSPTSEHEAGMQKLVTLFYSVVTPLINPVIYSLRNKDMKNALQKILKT
Chain of Olfr748 (E9Q9Z0 entry or part of it): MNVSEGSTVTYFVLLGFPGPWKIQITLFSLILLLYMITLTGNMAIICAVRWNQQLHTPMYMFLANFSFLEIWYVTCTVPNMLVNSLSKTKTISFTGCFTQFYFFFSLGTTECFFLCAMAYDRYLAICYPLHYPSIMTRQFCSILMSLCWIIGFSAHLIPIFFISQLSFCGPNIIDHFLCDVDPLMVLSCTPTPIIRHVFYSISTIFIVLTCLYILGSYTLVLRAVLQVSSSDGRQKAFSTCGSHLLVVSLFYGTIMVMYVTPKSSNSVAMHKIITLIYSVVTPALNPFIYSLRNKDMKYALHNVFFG
Chain of Olfr738 (L7N1X7 entry or part of it): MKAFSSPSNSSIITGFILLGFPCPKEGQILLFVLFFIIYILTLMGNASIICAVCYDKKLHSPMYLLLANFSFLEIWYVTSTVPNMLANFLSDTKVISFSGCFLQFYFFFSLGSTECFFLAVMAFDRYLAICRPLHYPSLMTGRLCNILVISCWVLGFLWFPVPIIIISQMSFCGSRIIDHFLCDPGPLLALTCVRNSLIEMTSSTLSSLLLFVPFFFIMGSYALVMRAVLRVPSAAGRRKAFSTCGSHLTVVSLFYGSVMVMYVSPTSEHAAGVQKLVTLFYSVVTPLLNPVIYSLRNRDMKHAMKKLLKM
Chain of Olfr740 (E9PV79 entry or part of it): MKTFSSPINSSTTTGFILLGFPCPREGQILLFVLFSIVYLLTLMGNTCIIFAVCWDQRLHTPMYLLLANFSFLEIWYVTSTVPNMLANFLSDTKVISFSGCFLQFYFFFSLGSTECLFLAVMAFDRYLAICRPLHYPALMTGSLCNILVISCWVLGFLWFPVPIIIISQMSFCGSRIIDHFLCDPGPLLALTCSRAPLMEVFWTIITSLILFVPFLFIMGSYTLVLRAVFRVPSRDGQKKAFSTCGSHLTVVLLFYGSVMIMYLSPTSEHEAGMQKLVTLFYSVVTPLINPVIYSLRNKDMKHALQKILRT

Row | Compound | IC50 (Olfr749) [µM] | Olfr749 % Inhibition (Olfr749) [%] | IC50 (Olfr743) [µM] | Olfr743 % Inhibition (Olfr743) [%] | IC50 (Olfr741; Table 22, first listing) [µM] | Olfr741 % Inhibition (Olfr741; Table 22, first listing) [%] | IC50 (Olfr741; [6]) [µM] | Olfr741 % Inhibition (Olfr741; [6]) [%] | IC50 (Olfr748) [µM] | Olfr748 % Inhibition (Olfr748) [%] | Olfr738 % Inhibition (Olfr738; Table 22, first listing) [%] | Olfr738 % Inhibition (Olfr738; [6]) [%] | IC50 [2] | IC50 (Olfr746) [µM] | Olfr746 % Inhibition (Olfr746) [%] | % Earthy/Moss Odor Remaining [3, 7] [%] | % Earthy/Moss Odor Remaining [3, 8] [%] | % Earthy/Moss Odor [3] [%] | Olfr742 % Inhibition (Olfr742; Table 22, first listing) [%] | IC50 (Olfr742; Table 22, first listing) [µM] | also measured
1 | c1nc2c(o1)CCCCCCCCCC2 [4,5,6,7,8,9,10,11,12,13-decahydrocyclododeca[d][1,3]oxazole] | 70 | 57.85 | 58.9 | 31.68 | 33.7 | 62.10 | 216 | 12.61 | 216 | 12.61 | 93.54 | 31.68 |  |  |  |  |  |  |  |  | IC50 [1]: 38 µM; Inhibition(%) [1]: 77%; IC50 (Olfr744): 117 µM; Olfr744 % Inhibition (Olfr744): 38.37%; Olfr739 % Inhibition (Olfr739; Table 22, first listing): 61.91%; IC50 (Olfr739; [5]): 24.1 µM; Olfr739 % Inhibition (Olfr739; [6]): 38.37%; Emax (Olfr742; Table 22, first listing): 59.7%; Emax (Olfr742; [6]): 57.9%; IC50 (Olfr742; [5]): 26.8 µM; Emax (Olfr740; HEK-293T, Table 22, first listing, read-out: Olfr740 % Inhibition): 102%; IC50 (Olfr740; [5]): 5.52 µM; IC50 (Olfr738; [5]): 9.26 µM
2 | 3-(4-hydroxy-4-methylpentyl)cyclohex-3-ene-1-carbaldehyde; 4-(4-hydroxy-4-methylpentyl)cyclohex-3-ene-1-carbaldehyde | 233 | 62.05 |  |  |  |  | 213 | 48.14 | 213 | 48.14 | 14.67 |  | 217 µM | 373 | 43.95 | 85.70 | 78.70 | 15.40 | 41.42 | 182 | % Inhibition [2]: 60%; Olfr742 % Inhibition (Olfr742; [6]): 62.05%; Olfr740 % Inhibition (Olfr740; Table 22, first listing): 72.15%; IC50 (Olfr740; Table 22, first listing): 185 µM; Olfr740 % Inhibition (Olfr740; [6]): 43.95%; IC50 (Olfr738; Table 22, first listing): 166 µM
3 | 1-(3,3-dimethylcyclohexen-1-yl)pent-4-en-1-one; 1-(5,5-dimethylcyclohexen-1-yl)pent-4-en-1-one | 46.2 | 90.61 | 210 | 59.11 | 131 | 124.57 | 81.6 | 66.47 | 81.6 | 66.47 | 33.49 | 59.11 | 111 µM and 148 µM | 89.4 | 94.28 | 85.80 | 72.30 | 34.50 | 146.91 | 4.3 | % Remaining in human sensory tests [4]: 58* %; Olfr742 % Inhibition (Olfr742; [6]): 90.61%; Olfr740 % Inhibition (Olfr740; Table 22, first listing): 179.31%; IC50 (Olfr740; Table 22, first listing): 1.68 µM; Olfr740 % Inhibition (Olfr740; [6]): 94.28%; IC50 (Olfr738; Table 22, first listing): 6.29 µM
